{"source": "patent US20210183467A1", "about": "“SYSTEM AND METHOD FOR USING MICROBIOME TO DE-RISK DRUG DEVELOPMENT” (YALE UNIVERSITY, priority 2018, published 2021)", "key": {"Bacteroides ovatus": {"tested_on": "Bacteroides ovatus", "type": "in vitro ADME", "method": "(§1) Frozen stocks of bacteria (Table 4) are plated on BHI blood agar and incubated at 37° C. under anaerobic conditions. Single colonies are inoculated into 4 mL pre-reduced GMM and incubated anaerobically at 37° C. for 24 h (Akkermansia muciniphila for 48 hours). BRV conversion assays are performed with the resulting dense cultures, as described above for bacterial communities."}, "[1]": {"assay": "Liver S9 enzyme assay of conversion to BVU", "type": "in vitro ADME", "method": "Human and murine S9 liver fractions are purchased from Thermo Fisher Scientific (HMS9L and MSMCPL, respectively). Enzyme assays are performed for the deglycosylation of arabinosyluracil derivatives. In brief, assays are performed at 37° C. Reaction volumes are 150 μL with liver S9 fractions at 5 μg/μL and BRV or SRV at 100 μM in 10 mM phosphate buffer (pH 7.4). Reactions are initiated by addition of drugs to pre-warmed reaction mixture. 10 μL samples are collected and quenched in 10 μL acetonitrile on ice at 0, 5, 10, 15, 20, 30, 45, 60, 90, 120, 180, 270, and 360 min after initiation. Substrates and reaction product are extracted and quantified by LC-MS as described below."}, "BT4554": {"tested_on": "BT4554", "assay": "B. thetaiotaomicron loss-of-function screen, bt4554 deletion and complementation", "type": "in vitro ADME, Bacteroides thetaiotaomicron", "excerpt": "Two independent strategies were developed to identify the microbiome-encoded DMEs responsible for these chemical transformations. For members of the Bacteroides (the most prominent genus in the human gut microbiome in the experiments), Proteobacteria, and other genetically tractable species, Insertion Sequencing (INSeq) is used to make mapped, arrayed transposon mutant libraries as described in Goodman 2009 and Goodman 2011. From these libraries, a representative set of mutants was identified that collectively include disruptions in most non-essential genes. Each mutant was incubated with the pool of drugs metabolized by the parent species. Genes required for drug metabolism by LC-MS were identified as above.\n1,352 B. thetaiotaomicron mutants were selected from an arrayed library as described in Goodman 2009 that disrupt ˜70% of its non-essential genes. Each mutant was incubated with a pool of 30 drugs metabolized by this organism. Drug levels were measured over time as above. […] FIGS. 10A-C show two examples: one of these is brivudine, an antiviral whose primary metabolite (bromovinyluracil; BVU) is dangerously toxic for patients taking 5-fluorouracil, a principal therapy for colorectal cancer. With reference to FIGS. 10A-C, transposon mutants representing disruptions in 70% of B. thetaiotaomicron (Bt) non-essential genes were screened for metabolism of 30 drugs targeted by the parent strain.\nThe contribution of microbial drug metabolism to serum drug and metabolite exposure was directly quantified by specifically modulating this activity in otherwise identical mice. To this end, the capacity of ten individual bacterial species was first determined, representing five major phyla that dominate the mammalian gut microbiota, for their capacity to convert BRV to BVU as illustrated in FIG. 14A. […]\nFrozen stocks are re-suspended in 4 mL pre-reduced GMM and incubated anaerobically at 37° C. for 14 h. […] Substrates and reaction product are extracted and quantified by LC-MS as described below. […]"}, "[2]": {"tested_on": "Bacteroides thetaiotaomicron", "assay": "BRV conversion assay with gut isolates", "type": "in vitro ADME", "settings": "among ten bacterial species", "method": "as §1"}}}
{"smiles": "O=c1[nH]c(=O)n([C@H]2C[C@H](O)[C@@H](CO)O2)cc1/C=C/Br", "note": "[BRV, Brivudine]", "values": [{"measurement": "capacity to convert BRV to BVU", "setting": "Bacteroides ovatus", "value": "highest metabolic activity"}, {"measurement": "conversion of BRV to BVU", "setting": "[1]; human S9 liver fractions", "value": "stoichiometric conversion to BVU"}, {"measurement": "conversion of BRV to BVU", "setting": "[1]; murine S9 liver fractions", "value": "stoichiometric conversion to BVU"}, {"measurement": "role of bt4554 in BRV conversion to BVU", "setting": "BT4554; targeted gene deletion and complementation at different expression levels", "value": "necessary and sufficient"}, {"measurement": "conversion to BVU by mutant in BT4554", "setting": "BT4554; transposon mutant, recapitulated by nonpolar deletion", "value": "unable to convert"}, {"measurement": "capacity to convert BRV to BVU", "setting": "[2]", "value": "highest metabolic activity"}]}
